Measurements reported in ChEMBL document CHEMBL4017527, “Are We There Yet? Applying Thermodynamic and Kinetic Profiling on Embryonic Ectoderm Development (EED) Hit-to-Lead Program” (J Med Chem, 2017).

Columns and labels:
Polycomb protein EED [1] = molecular target: T1, Polycomb protein EED (Homo sapiens, UniProt O75530); assay: Binding affinity to biotin labelled human EED (78 to 441 residues) by SPR assay
Polycomb protein EED [2] = molecular target: T1, Polycomb protein EED; assay: Binding affinity to GST tagged EED (unknown origin) after 1 hr by OG(488) probe based TR-FRET assay
Polycomb protein EED [3] = molecular target: T1, Polycomb protein EED; assay: Binding affinity to His tagged human EED (77 to 441 residues) expressed in Escherichia coli BL21(DE3)-T1R by ITC method; settings: read-out: Kd(app)

T1 sequence (O75530 whole entry, the tested form may be a part): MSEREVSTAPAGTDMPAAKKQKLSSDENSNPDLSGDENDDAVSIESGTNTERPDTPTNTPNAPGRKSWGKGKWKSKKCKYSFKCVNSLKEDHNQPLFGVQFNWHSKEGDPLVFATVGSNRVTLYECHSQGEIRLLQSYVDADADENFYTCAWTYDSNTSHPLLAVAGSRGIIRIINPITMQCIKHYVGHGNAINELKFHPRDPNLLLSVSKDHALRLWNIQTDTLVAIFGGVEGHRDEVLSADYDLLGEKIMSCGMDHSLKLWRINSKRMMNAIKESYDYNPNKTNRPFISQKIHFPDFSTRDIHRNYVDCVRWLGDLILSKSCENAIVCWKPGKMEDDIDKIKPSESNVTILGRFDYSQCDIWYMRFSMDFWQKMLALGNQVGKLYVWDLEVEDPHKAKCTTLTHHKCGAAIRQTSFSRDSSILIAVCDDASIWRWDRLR

Kd (Polycomb protein EED [1]) [nM] | Ki (Polycomb protein EED [2]) [nM] | Kd (Polycomb protein EED [3]) [nM] | SMILES
4 | 0.7 | 2100 | CC(=O)N1CCN(c2ccc([C@H]3CN(C4CCc5cccc(F)c54)C[C@@H]3N(C)C)cc2)CC1 (some centres not stated)
 | 680 | 2500 | CN(C)c1cc(N2CCc3ccccc3C2)ccn1
3100 | 80 | 370 | CN(C)[C@@H]1CN(Cc2c(F)cccc2Br)C[C@H]1c1cn(C)c2ccccc12
100 | 3 | 1140 | CC(=O)N1CCN(c2ccc([C@H]3CN([C@@H]4CCc5cccc(F)c54)C[C@@H]3N(C)C)cc2)CC1
140 | 10 | 30 | Cc1cccc(F)c1CN1C[C@H](c2ccc(S(C)(=O)=O)cc2)[C@@H](N(C)C)C1
13400 | 1500 |  | COc1ccccc1N1CCN(C(=O)c2ccccc2S(C)(=O)=O)CC1
150 to 310 | 10 to 20 | 90 | CN(C)[C@H]1CN(Cc2c(F)cccc2Br)C[C@@H]1c1cn(C)c2ccccc12
200 | 18 | 110 | CC(=O)N1CCN(c2ccc([C@@H]3CN([C@@H]4CCc5cccc(F)c54)C[C@H]3N(C)C)cc2)CC1
210 | 12 |  | COc1ccc([C@H]2CN(Cc3c(C)cccc3F)C[C@@H]2N(C)C)cc1OC
300 | 18 |  | COc1ccc([C@H]2CN(Cc3c(F)cccc3Br)C[C@@H]2N(C)C)cc1OC
 |  | 10 | CN(C)[C@H]1CN([C@H]2CCc3cccc(F)c32)C[C@@H]1c1cn(C)c2ccccc12
20 | 3 |  | CC(=O)N1CCN(c2ccc([C@H]3CN(Cc4c(C)cccc4F)C[C@@H]3N(C)C)cc2)CC1
1 | 0.3 | 10 | CC(=O)N1CCN(c2ccc([C@H]3CN([C@H]4CCc5cccc(F)c54)C[C@@H]3N(C)C)cc2)CC1
4800 | 110 |  | CN(C)[C@H]1CN(Cc2c(F)cccc2Br)C[C@@H]1c1ccccc1
 |  | 6 | Cc1cccc(F)c1CN1C[C@H](c2cn(C)c3ccccc23)[C@@H](N(C)C)C1
290 | 42 | 2200 | CC(=O)N1CCN(c2ccc([C@@H]3CN([C@H]4CCc5cccc(F)c54)C[C@H]3N(C)C)cc2)CC1
9800 | 450 |  | CN(C)[C@H]1CN(Cc2c(F)cccc2Br)C[C@@H]1c1ccccn1
1400 | 290 | 940 | Cc1cccc(F)c1CN1C[C@@H](N(C)C)[C@H](c2ccc(S(C)(=O)=O)cc2)C1
61 | 8 |  | CN(C)[C@H]1CN(Cc2c(F)cc(O)cc2Br)C[C@@H]1c1cn(C)c2ccccc12
43 | 3 |  | COc1ccc([C@H]2CN(C3CCc4cccc(F)c43)C[C@@H]2N(C)C)cc1OC (some centres not stated)
2600 | 91 |  | CN(C)[C@H]1CN(Cc2c(F)cccc2Br)C[C@@H]1c1ccc(O)cc1
22000 | 950 | 5200 | c1ccc2c(c1)CCN(c1ccncc1)C2
